This note sets out measurements from US8507214B2, “Elisa kit for detecting lincomycin” (Beijing Kwinbon Biotechnology Co., Ltd., priority 2008, dated 2013).

The test system of experiment [1] is monoclonal antibody prepared from hapten LIN-S2. Description: Cross reaction (specificity) of the monoclonal antibody prepared from hapten LIN-S2. In kind it is binding, mouse. Particulars: antibody from hapten scheme LIN-S2; lincomycin = 100%. The method, then:
(§1) When the mouse serum titer is determined as high, the spleen cells are collected and fused with SP2/0 myeloma cells at an amount ratio of 7:1. The cell supernatant is detected by indirect competitive ELISA for screening the positive wells. The cells in the positive wells are cloned via limiting dilution method until a hybridoma cell secreting monoclonal antibody is obtained. The 50% inhibitory concentration and specificity of the monoclonal antibodies prepared from the two hapten schemes above are detected.

Experiment [2] relates to lincomycin monoclonal antibody prepared from hapten LIN-S1. Description: Cross reaction (specificity) of the monoclonal antibody prepared from hapten LIN-S1. In kind it is binding, mouse. Particulars: antibody from hapten scheme LIN-S1; lincomycin = 100%. The procedure: as §1

For `[H]/N=C(/N)N[C@H]1[C@H](O)[C@@H](O)[C@H](O[C@@H]2O[C@@H](C)[C@](O)(C=O)[C@H]2O[C@@H]2O[C@@H](CO)[C@H](O)[C@@H](O)[C@@H]2NC)[C@@H](N/C(N)=N\[H])[C@@H]1O` [Streptomycin], the Cross reaction in experiment [1] was 9.2%; in experiment [2] it was less than 1%.
For the compound `CC[C@H]1OC(=O)C[C@@H](O)[C@H](C)[C@@H](O[C@@H]2O[C@H](C)[C@@H](O[C@H]3C[C@@](C)(O)[C@@H](O)[C@H](C)O3)[C@H](N(C)C)[C@H]2O)[C@@H](CC=O)C[C@@H](C)C(=O)/C=C/C(C)=C/[C@@H]1CO[C@@H]1O[C@H](C)[C@@H](O)[C@@H](OC)[C@H]1OC` [Tylosin], the Cross reaction in experiment [1] and in experiment [2] was less than 1% each time.
Take `CCC[C@@H]1C[C@@H](C(=O)N[C@@H]([C@H]2O[C@H](SC)[C@H](O)[C@@H](O)[C@H]2O)[C@@H](C)O)N(C)C1` [Lincomycin]: the Cross reaction in experiment [1] and in experiment [2] was 100% throughout.
As for `CC[C@H]1OC(=O)[C@H](C)[C@@H](O[C@H]2C[C@@](C)(OC)[C@@H](O)[C@H](C)O2)[C@H](C)[C@@H](O[C@@H]2O[C@H](C)C[C@H](N(C)C)[C@H]2O)[C@](C)(O)C[C@@H](C)C(=O)[C@H](C)[C@@H](O)[C@]1(C)O` [Erythromycin], the Cross reaction in experiment [1] and in experiment [2] was less than 1% in each case.
